# Patent publication US9505744B2, “Solid state forms of vilazodone and vilazodone hydrochloride” (Assia Chemical Industries Ltd., priority 2011, dated 2016)
# Where a name gives a salt, the structure may show the parent alone.
# Tests used:
# Format in all cases: physicochemical
# Wettability = assay: Wettability
# [1] = Compressibility: pressing samples with 1 ton for 60 minutes; settings: for appearance of palettes after pressing: pressed with 1 ton for 60 minutes
# [2] = Chemical and polymorphic stability on exposure to heating and mechanical pressure; settings: when exposed to heating and to mechanical pressure; hydrochloride
# [3] = Polymorphic stability on exposure to humidity; settings: 100% relative humidity for at least a few moths
# Description: Form Lambda doesn't convert to another polymorph when exposed to humidity.
# [4] = Hausner ratio (tapped density / poured (bulk) density)
# Description: These properties enable improve tablet density uniformity, weight variation, homogeneity, die fill characteristics, dimensional control and ejection characteristics.
degree of wettability (Wettability),compressibility ([1]; API pressed into a palette),chemical and polymorphic stability [2],conversion to another polymorph when exposed to humidity [3],Hausner ratio (ratio between tapped density and poured (bulk) density) [4],Structure (SMILES),appearance of palettes after pressing [1]
enhanced degree of wettability,excellent compressibility,chemically and polymorphically stable,,,"N#Cc1ccc2[nH]cc(CCCCN3CCN(c4ccc5oc(C(N)=O)cc5c4)CC3)c2c1 [Form Alpha, Vilazodone hydrochloride]",high structural order and shape without visible lamination on the surface or breaking of the palettes
,,,remains unchanged,favorable Hausner ratio,"N#Cc1ccc2[nH]cc(CCCCN3CCN(c4ccc5oc(C(N)=O)cc5c4)CC3)c2c1 [Form Lambda, Vilazodone hydrochloride]",
,,high chemical and polymorphic stability,,,"N#Cc1ccc2[nH]cc(CCCCN3CCN(c4ccc5oc(C(N)=O)cc5c4)CC3)c2c1 [Form Mu, Vilazodone hydrochloride]",high structural order and shape without visible lamination on the surface or breaking of the palettes
